According to patent publication US20260327264A1, “PEPTIDE INHIBITORS OF INTERLEUKIN-23 RECEPTOR” (Zealand Pharma A/S, priority 2023, published 2026):
Like-named read-outs stand apart in the source and are kept apart here. *1 amine or outer side, *2 acyl side, *3 side chain or, on linkers, in order; H or OH if unused. Where a SMILES comes first, the peptide text is derived from it. Bridges are numbered along the chain shown (N, C = ends). [ ]: non-standard residue; d: D form. 2Nal = N[C@@H](Cc1ccc2ccccc2c1)C(=O)O; AEF = NCCOc1ccc(C[C@H](N)C(=O)O)cc1; X1 = O=C(Cc1ccc(CN[*:1])cc1)[*:2]; 3Pal = N[C@@H](Cc1cccnc1)C(=O)O; αMeL = CC(C)C[C@](C)(N)C(=O)O; Dab = NCC[C@H](N)C(=O)O

Tests used:
human IL-23R = molecular target: T1, human IL-23R (Homo sapiens, UniProt Q5VWK5); assay: Binding assay: displacement of fluorophore (TAMRA)-labelled reference compound from human IL-23R (BRET, Nluc-IL23R fusion protein membranes); conditions: for Emax: read-out: % displacement (hIL-23R binding)
T1 construct: Nanoluc luciferase (Nluc); secretion signal encoded by the plasmid (not specified); expressed in transfected cells; crude membranes used in the assay
T1 sequence (Q5VWK5 22-629): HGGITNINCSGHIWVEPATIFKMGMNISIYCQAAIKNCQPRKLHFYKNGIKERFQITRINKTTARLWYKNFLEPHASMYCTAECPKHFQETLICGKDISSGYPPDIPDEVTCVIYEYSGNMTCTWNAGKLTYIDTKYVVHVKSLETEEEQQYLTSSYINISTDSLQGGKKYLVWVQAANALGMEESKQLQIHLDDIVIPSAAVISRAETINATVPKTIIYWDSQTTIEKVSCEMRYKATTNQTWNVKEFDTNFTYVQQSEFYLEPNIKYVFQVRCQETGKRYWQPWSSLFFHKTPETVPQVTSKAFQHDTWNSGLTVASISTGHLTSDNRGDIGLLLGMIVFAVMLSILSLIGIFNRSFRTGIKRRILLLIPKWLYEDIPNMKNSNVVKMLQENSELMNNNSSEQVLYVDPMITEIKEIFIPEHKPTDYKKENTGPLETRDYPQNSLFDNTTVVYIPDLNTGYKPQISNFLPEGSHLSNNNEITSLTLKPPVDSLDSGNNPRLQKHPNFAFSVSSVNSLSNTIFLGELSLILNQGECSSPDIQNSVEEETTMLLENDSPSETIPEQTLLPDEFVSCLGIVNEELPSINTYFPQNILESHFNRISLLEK

[1] = test system: IL-23 mediated STAT3 signalling (DB cells); assay: Functional inhibition of IL-23 mediated STAT3 signalling (phospho-STAT3 Tyr705) in DB cells; type: cell-based, human; conditions: for hIL-23 (pSTAT3) antagonist % inhibition: Table 3-2, maximal inhibitory response, EC80 of hIL-23
In short: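 Phospho-STAT3 in lysed DB cells quantified by MSD kit after 90 min exposure to EC80 human IL-23, following 15 min compound pretreatment (37° C, 5% CO2). IC50 and maximal inhibition derived from curves normalized between IL-23-only and buffer-only controls.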

[2] = Peptide stability in simulated gastric fluid (SGF); type: in vitro ADME; conditions: pig, pH 1.2, pepsin, 37° C.
Experimental: (§1) SGF and SIF were prepared based on the United States Pharmacopeia specifications (Test Solutions, United States Pharmacopeia 35, NF 30, 2012). SGF was prepared by dissolving sodium chloride (0.2 g) in 50 mL of water. A volume of 0.7 mL of 10 M HCl was added to adjust the pH of the solution to 1.2 and the volume made up to 100 mL with water. 64 mg porcine pepsin (P7125, Sigma Aldrich) was gently dissolved into 20 mL preheated (37° C.) solution (3.2 g/L) immediately prior to the incubation. SIF was prepared by dissolving monobasic potassium phosphate (0.68 g) in 50 mL of water and adjusting the pH to 6.8 with 1 M NaOH. The volume was subsequently made up to 100 mL with water. 200 mg porcine pancreatin (P1625, Sigma Aldrich) was gently dissolved into 20 mL preheated (37° C.) solution (10 g/L) immediately prior to the incubation.
(§2) To initiate the incubations, 20 μL of peptide stock solution in 50% v/v isopropanol was deposited at the bottom of a well plate and 580 μL matrix solution was added to give a final substrate concentration of 10 μM. The incubation was performed at 37° C. with gentle shaking. 70 μL aliquots were removed at 0, 1 and 4 hours and quenched into 210 μL ice-cold precipitant solution (95% v/v acetonitrile with 0.1% v/v formic acid). After the last timepoint, the sampling plate was mixed for 10 min on a shaking table and centrifuged 10 min at 2200 g. 70 μL resulting supernatant was diluted with 150 μL water, mixed and centrifugated before analysis by liquid chromatography high resolution mass spectrometry. The zero sample was reinjected after the 4-hour sample to confirm that no drift in instrument sensitivity had occurred during the run. Percent remaining at each timepoint was calculated relative to timepoint zero based on absolute peak areas.
(§3) Compounds with a SGF stability (after 4 h) above 70% are considered highly SGF stable. Compounds with a SGF stability (after 4 h) between 30-70% (including 30% and 70%) are considered moderately SGF stable. Compounds with a SGF stability (after 4 h) below 30% are considered SGF unstable. SGF stability values above 100% are due to assay uncertainty and indicate the compound has not degraded.

[3] = Peptide stability in simulated intestinal fluid (SIF); type: in vitro ADME; conditions: pig, simulated intestinal fluid, SIF, pH 6.8, pancreatin, 37° C., 10 μM; for remaining at 4 h, 10 µM: read-out: SIF (% remaining 4 h)
Experimental: as §1, §2
as §3, with “SIF” for “SGF”

[4] = Table 3-2, EC80 of hIL-23, read-out: hIL-23 (pSTAT3) antagonist IC50
[5] = EC80 of hIL-23, read-out: IC50 (pSTAT3)

Row | SMILES | Emax (human IL-23R) [%] | IC50 [1, 4] [nM] | hIL-23 (pSTAT3) antagonist % inhibition [1] [%] | remaining at 4 h, 10 µM [2] [%] | IC50 (human IL-23R) [nM] | remaining at 1 h, 10 µM [3] [%] | remaining at 4 h, 10 µM [3] [%] | remaining at 1 h, 10 µM ([2]; 1 h) [%] | IC50 [1, 5] [nM]
1 | CNC(=O)[C@H](Cc1cccnc1)NC(=O)[C@H](COC)NC(=O)[C@@H]1CCC(=O)NCc2ccc(cc2)CC(=O)N[C@@H](CO)C(=O)N[C@H]2CCC(=O)NCC[C@H](NC(=O)[C@H](CCC(N)=O)NC(=O)[C@H](Cc3c[nH]c4ccccc34)NC2=O)C(=O)N[C@@H](Cc2ccc(OCCN)cc2)C(=O)N[C@@H](Cc2ccc3ccccc3c2)C(=O)N[C@@](C)(CC(C)C)C(=O)N1 [Compound 37, [4-Aminomethyl-phenylacetyl](1c)*SE(2c)WQ[Dab](2c)[Y(2-aminoethoxy)][2-Nal][2-Me-Leu]E(1c)[Ser(OMe)][3-(3-Pyridyl)-Ala]-[NHMe]] | 95 | 0.069 | 100 | 102 | – | – | – | – | –
2 | CNC(=O)[C@H](Cc1cccnc1)NC(=O)[C@H](CCN)NC(=O)[C@@H]1CCC(=O)NCc2ccc(cc2)CC(=O)N[C@@H](C)C(=O)N[C@H]2CCC(=O)NCC[C@H](NC(=O)[C@H](CCC(N)=O)NC(=O)[C@H](Cc3c[nH]c4ccccc34)NC2=O)C(=O)N[C@@H](Cc2cnc3ccccc3c2)C(=O)N[C@@H](Cc2ccc3ccccc3c2)C(=O)NC(C)(C)C(=O)N1 [Compound 52, [4-aminomethyl-phenylacetyl](1c)*AE(2c)WQ[Dab](2c)[3-quinolinylalanine][2Nal][Aib]E(1c)[Dab][3-(3-Pyridyl)-alanyl]-[NHMe]] | 102 | 0.6 | 99 | – | 0.081 | 92 | 95 | – | –
3 | CC(C)C[C@]1(C)NC(=O)[C@H](Cc2ccc3ccccc3c2)NC(=O)[C@H](Cc2ccc(OCCN)cc2)NC(=O)[C@@H]2CCNC(=O)CC[C@H](NC(=O)[C@H](CO)NC(=O)Cc3ccc(cc3)CNC(=O)CC[C@@H](C(=O)N[C@@H](CCN)C(=O)N[C@@H](Cc3c[nH]cn3)C(=O)N[C@@H](Cc3cccnc3)C(N)=O)NC1=O)C(=O)N[C@@H](Cc1c[nH]c3ccccc13)C(=O)N[C@@H](CCC(N)=O)C(=O)N2 [Compound 12, [4-Aminomethyl-phenylacetyl](1c)*SE(2c)WQ[Dab](2c)[Y(2-aminoethoxy)][2-Nal][2-Me-Leu]E(1c)[Dab]H[3-(3-Pyridyl)-Ala]-[NH2]] ([X1]SEWQ[Dab][AEF][2Nal][αMeL]E[Dab]H[3Pal]-NH2; lactam 3-6, N-10) | 104 | 3.5 | 100 | – | – | – | – | 94 | –
4 | CNC(=O)[C@H](Cc1cccnc1)NC(=O)[C@H](CCN)NC(=O)[C@@H]1CCC(=O)NCc2ccc(cc2)CC(=O)N[C@@H](C)C(=O)N[C@H]2CCC(=O)NCC[C@H](NC(=O)[C@H](CCC(N)=O)NC(=O)[C@H](Cc3c[nH]c4ccccc34)NC2=O)C(=O)N[C@@H](Cc2ccc(OCCN)cc2)C(=O)N[C@@H](Cc2c[nH]c3ncccc23)C(=O)NC(C)(C)C(=O)N1 [Compound 44, [4-Aminomethyl-phenylacetyl](1c)*AE(2c)WQ[Dab](2c)[Y(2-aminoethoxy)][7-AzaTrp][Aib]E(1c)[Dab][3-(3-Pyridyl)-Ala]-[NHMe]] | – | – | – | – | – | 78 | 91 | – | –
5 | CC(C)C[C@]1(C)NC(=O)[C@H](Cc2ccc3ccccc3c2)NC(=O)[C@H](Cc2ccc(OCCN)cc2)NC(=O)[C@@H]2CCNC(=O)CC[C@H](NC(=O)[C@H](CO)NC(=O)Cc3ccc(cc3)CNC(=O)CC[C@@H](C(=O)N[C@@H](CCN)C(=O)N[C@@](C)(Cc3cccnc3)C(N)=O)NC1=O)C(=O)N[C@@H](Cc1c[nH]c3ccccc13)C(=O)N[C@@H](CCC(N)=O)C(=O)N2 [Compound 3, [4-Aminomethyl-phenylacetyl](1c)*SE(2c)WQ[Dab](2c)[Y(2-aminoethoxy)][2-Nal][2-Me-Leu]E(1c)[Dab][2-Me-3-(3-Pyridyl)-Ala]-[NH2]] | 99 | 1.7 | 98 | 104 | – | – | – | – | 1.7
6 | CNC(=O)[C@H](Cc1cccnc1)NC(=O)[C@H](Cc1c[nH]cn1)NC(=O)[C@@H]1CCC(=O)NCc2ccc(cc2)CC(=O)N[C@@H](CO)C(=O)N[C@H]2CCC(=O)NCC[C@H](NC(=O)[C@H](CCC(N)=O)NC(=O)[C@H](Cc3c[nH]c4ccccc34)NC2=O)C(=O)N[C@@H](Cc2ccc(OCCN)cc2)C(=O)N[C@@H](Cc2ccc3ccccc3c2)C(=O)N[C@@](C)(CC(C)C)C(=O)N1 [Compound 34, [4-Aminomethyl-phenylacetyl](1c)*SE(2c)WQ[Dab](2c)[Y(2-aminoethoxy)][2-Nal][2-Me-Leu]E(1c)H[3-(3-Pyridyl)-Ala]-[NHMe]] ([X1]SEWQ[Dab][AEF][2Nal][αMeL]EH[3Pal]-NHMe; lactam 3-6, N-10) | 90 | – | 102 | 95 | – | – | – | – | –
7 | CC(C)C[C@]1(C)NC(=O)[C@H](Cc2ccc3ccccc3c2)NC(=O)[C@H](Cc2ccc(OCCN)cc2)NC(=O)[C@@H]2CCNC(=O)CC[C@H](NC(=O)[C@H](CO)NC(=O)Cc3ccc(cc3)CNC(=O)CC[C@@H](C(=O)N[C@@H](CCN)C(=O)N(C)[C@@H](Cc3cccnc3)C(N)=O)NC1=O)C(=O)N[C@@H](Cc1c[nH]c3ccccc13)C(=O)N[C@@H](CCC(N)=O)C(=O)N2 [Compound 4, [4-Aminomethyl-phenylacetyl](1c)*SE(2c)WQ[Dab](2c)[Y(2-aminoethoxy)][2-Nal][2-Me-Leu]E(1c)[Dab][N—Me-3-(3-Pyridyl)-Ala]-[NH2]] | 111 | 6.5 | 100 | 103 | 0.17 | – | – | – | 6.5
8 | CNC(=O)[C@H](Cc1cccnc1)NC(=O)[C@H](CCN)NC(=O)[C@@H]1CCC(=O)NCc2ccc(cc2)CC(=O)N[C@@H](C)C(=O)N[C@H]2CCC(=O)NCC[C@H](NC(=O)[C@H](CCC(N)=O)NC(=O)[C@H](Cc3c[nH]c4ccccc34)NC2=O)C(=O)N[C@@H](CCc2ccccc2)C(=O)N[C@@H](Cc2ccc3ccccc3c2)C(=O)NC(C)(C)C(=O)N1 [Compound 41, [4-Aminomethyl-phenylacetyl](1c)*AE(2c)WQ[Dab](2c)[hPhe][2-Nal][Aib]E(1c)[Dab][3-(3-Pyridyl)-Ala]-[NHMe]] | 104 | – | – | 102 | – | – | – | – | –
9 | CC(C)C[C@]1(C)NC(=O)[C@H](Cc2c[nH]c3ccccc23)NC(=O)[C@H](Cc2c[nH]c3ccccc23)NC(=O)[C@@H]2CSCC(=O)CSC[C@H](NC(=O)[C@H]([C@@H](C)O)NC(=O)[C@@H](NC(=O)CN)CSCC(=O)CSC[C@@H](C(=O)N[C@@H](CO)C(N)=O)NC1=O)C(=O)N[C@@H](Cc1c[nH]c3ccccc13)C(=O)N[C@@H](CCC(=O)O)C(=O)N2 (single isomer, unassigned) [I5 (isomer 3), H-GC(1a)TC(2a)WEC(2a)WW[2-Me-Leu]C(1a)S-[NH2], reference compound] | 102 | – | 91 | – | – | – | – | – | –
